This experiment relates to RS4; 11 with G101V mutation. In words: In vitro anti-proliferation assay (ATPlite luminescence) in BCL-2-dependent ALL cell line RS4;11 with G101V mutation. As to conditions: read-out: RS411-G101V IC50. In kind it is cell-based. In a few lines:
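IC50 came from luminescent ATP quantification (ATPlite) following cell lysis. Compound dose ranges were applied for roughly 72 h to about 1×10^4 G101V-mutant RS4;11 cells per well, in 10% FBS medium.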
(In general: Cellular ATP, detected with luciferase, serves as a proxy for viable cell number.)

Setting [1] is: cellular anti-proliferative IC50, about 72 hours, medium with 10% FBS, ATPlite.

Where two headings read alike, the source gives them in different places.

In general, IC50 refers to the point on the concentration scale where inhibition reaches its midpoint.

For the compound `COc1cc([C@H](C)N2CCN(C3CC4(CCN(c5ccc(C(=O)NS(=O)(=O)c6cc7c(c([N+](=O)[O-])c6)N[C@H](C6CCOCC6)CO7)c(N6c7cc8cc[nH]c8nc7O[C@H]7COCC[C@@H]76)c5)CC4)C3)[C@H](c3ccccc3C)C2)cnc1N1CCOC[C@@H]1C` [Example 193, 4-(2-((R)-4-((S)-1-(5-methoxy-6-((S)-3-methylmorpholino)pyridin-3-yl)ethyl)-2-(o-tolyl)piperazin-1-yl)-7-azaspiro[3.5]nonan-7-yl)-N-(((R)-5-nitro-3-(tetrahydro-2H-pyran-4-yl)-3,4-dihydro-2H-benzo[b][1,4]oxazin-7-yl)sulfonyl)-2-((5aS,9aR)-6,7,9,9a-tetrahydro-1H-pyrano[3,4-b]pyrrolo[3′,2′:5,6]pyrido[3,2-e][1,4]oxazin-5(5aH)-yl)benzamide], the IC50 (Homo sapiens, RS4-11, 72 h) was 73.3 nM.
The same measure, in the same setting: the result for `COc1cc([C@@H](C)N2CCN(C3CC4(CCN(c5ccc(C(=O)NS(=O)(=O)c6cc7c(c([N+](=O)[O-])c6)N[C@H](C6CCOCC6)CO7)c(N6c7cc8cc[nH]c8nc7O[C@H]7COCC[C@@H]76)c5)CC4)C3)[C@H](c3ccccc3C)C2)cnc1N1CCOC[C@@H]1C` [Example 194, 4-(2-((R)-4-((R)-1-(5-methoxy-6-((S)-3-methylmorpholino)pyridin-3-yl)ethyl)-2-(o-tolyl)piperazin-1-yl)-7-azaspiro[3.5]nonan-7-yl)-N-(((R)-5-nitro-3-(tetrahydro-2H-pyran-4-yl)-3,4-dihydro-2H-benzo[b][1,4]oxazin-7-yl)sulfonyl)-2-((5aS,9aR)-6,7,9,9a-tetrahydro-1H-pyrano[3,4-b]pyrrolo[3′,2′:5,6]pyrido[3,2-e][1,4]oxazin-5(5aH)-yl)benzamide] reads 2.53 nM.
On to `Cc1ccccc1[C@@H]1CN([C@@H]2CCOc3c2ccc(F)c3F)CCN1C1CC2(CCN(c3ccc(C(=O)NS(=O)(=O)c4cc5c(c([N+](=O)[O-])c4)N[C@H](C4CCOCC4)CO5)c(N4c5cc6cc[nH]c6nc5O[C@H]5COCC[C@@H]54)c3)CC2)C1` [Example 195, 4-{2-[(2R)-4-[(4R)-7,8-difluoro-3,4-dihydro-2H-1-benzopyran-4-yl]-2-(2-methylphenyl)piperazin-1-yl]-7-azaspiro[3.5]nonan-7-yl}-2-[(3R,8S)-2,5-dioxa-9,15,17-triazatetracyclo[8.7.0.0^{3,8}.0^{12,16}]heptadeca-1(10),11,13,16-tetraen-9-yl]-N-[(3R)-5-nitro-3-(oxan-4-yl)-3,4-dihydro-2H-1,4-benzoxazin-7-ylsulfonyl]benzamide], for which the IC50 under setting [1] came out at 94.5 nM.
`Cc1ccccc1[C@@H]1CN([C@H]2CCOc3c2ccc(F)c3F)CCN1C1CC2(CCN(c3ccc(C(=O)NS(=O)(=O)c4cc5c(c([N+](=O)[O-])c4)N[C@H](C4CCOCC4)CO5)c(N4c5cc6cc[nH]c6nc5O[C@H]5COCC[C@@H]54)c3)CC2)C1` [Example 196, 4-{2-[(2R)-4-[(4S)-7,8-difluoro-3,4-dihydro-2H-1-benzopyran-4-yl]-2-(2-methylphenyl)piperazin-1-yl]-7-azaspiro[3.5]nonan-7-yl}-2-[(3R,8S)-2,5-dioxa-9,15,17-triazatetracyclo[8.7.0.0^{3,8}.0^{12,16}]heptadeca-1(10),11,13,16-tetraen-9-yl]-N-[(3R)-5-nitro-3-(oxan-4-yl)-3,4-dihydro-2H-1,4-benzoxazin-7-ylsulfonyl]benzamide]: the IC50 under setting [1] is 92.3 nM.
Turning to `Cc1ccccc1[C@@H]1CN([C@H]2CCOc3c(F)cc(F)cc32)CCN1C1CC2(CCN(c3ccc(C(=O)NS(=O)(=O)c4cc5c(c([N+](=O)[O-])c4)N[C@H](C4CCOCC4)CO5)c(N4c5cc6cc[nH]c6nc5O[C@H]5COCC[C@@H]54)c3)CC2)C1` [Example 197, 4-(2-((R)-4-((S)-6,8-difluorochroman-4-yl)-2-(o-tolyl)piperazin-1-yl)-7-azaspiro[3.5]nonan-7-yl)-N-(((R)-5-nitro-3-(tetrahydro-2H-pyran-4-yl)-3,4-dihydro-2H-benzo[b][1,4]oxazin-7-yl)sulfonyl)-2-((5aS,9aR)-6,7,9,9a-tetrahydro-1H-pyrano[3,4-b]pyrrolo[3′,2′:5,6]pyrido[3,2-e][1,4]oxazin-5(5aH)-yl)benzamide], the IC50 (Homo sapiens, RS4-11, 72 h) amounted to 328 nM.
On the same count and under the same terms, in the case of `Cc1ccccc1[C@@H]1CN([C@@H]2CCOc3c(F)cc(F)cc32)CCN1C1CC2(CCN(c3ccc(C(=O)NS(=O)(=O)c4cc5c(c([N+](=O)[O-])c4)N[C@H](C4CCOCC4)CO5)c(N4c5cc6cc[nH]c6nc5O[C@H]5COCC[C@@H]54)c3)CC2)C1` [Example 198, 4-(2-((R)-4-((R)-6,8-difluorochroman-4-yl)-2-(o-tolyl)piperazin-1-yl)-7-azaspiro[3.5]nonan-7-yl)-N-(((R)-5-nitro-3-(tetrahydro-2H-pyran-4-yl)-3,4-dihydro-2H-benzo[b][1,4]oxazin-7-yl)sulfonyl)-2-((5aS,9aR)-6,7,9,9a-tetrahydro-1H-pyrano[3,4-b]pyrrolo[3′,2′:5,6]pyrido[3,2-e][1,4]oxazin-5(5aH)-yl)benzamide] it was 145 nM.
As for `Cc1ccccc1[C@@H]1CN(C2CCC(C)(O)CC2)CCN1C1CC2(CCN(c3ccc(C(=O)NS(=O)(=O)c4cc5c(c([N+](=O)[O-])c4)N[C@H](C4CCOCC4)CO5)c(N4c5cc6cc[nH]c6nc5O[C@H]5COCC[C@@H]54)c3)CC2)C1` (stereo partly drawn) [Example 199, 4-(2-((R)-4-((1r,4R)-4-hydroxy-4-methylcyclohexyl)-2-(o-tolyl)piperazin-1-yl)-7-azaspiro[3.5]nonan-7-yl)-N-(((R)-5-nitro-3-(tetrahydro-2H-pyran-4-yl)-3,4-dihydro-2H-benzo[b][1,4]oxazin-7-yl)sulfonyl)-2-((5aS,9aR)-6,7,9,9a-tetrahydro-1H-pyrano[3,4-b]pyrrolo[3′,2′:5,6]pyrido[3,2-e][1,4]oxazin-5(5aH)-yl)benzamide], the IC50 under setting [1] worked out at 50.4 nM.
The same measure, in the same setting: the result for `Cc1ccccc1[C@@H]1CN(C2CCC(C)(O)CC2)CCN1C1CC2(CCN(c3ccc(C(=O)NS(=O)(=O)c4cc5c(c([N+](=O)[O-])c4)N[C@H](C4CCOCC4)CO5)c(N4c5cc6cc[nH]c6nc5O[C@H]5COCC[C@@H]54)c3)CC2)C1` (stereo partly drawn) [Example 200, 4-(2-((R)-4-((1s,4S)-4-hydroxy-4-methylcyclohexyl)-2-(o-tolyl)piperazin-1-yl)-7-azaspiro[3.5]nonan-7-yl)-N-(((R)-5-nitro-3-(tetrahydro-2H-pyran-4-yl)-3,4-dihydro-2H-benzo[b][1,4]oxazin-7-yl)sulfonyl)-2-((5aS,9aR)-6,7,9,9a-tetrahydro-1H-pyrano[3,4-b]pyrrolo[3′,2′:5,6]pyrido[3,2-e][1,4]oxazin-5(5aH)-yl)benzamide] reads 82.6 nM; that for `Cc1ccccc1[C@@H]1CN(C2CCN(C3CCOCC3)CC2)CCN1C1CC2(CCN(c3ccc(C(=O)NS(=O)(=O)c4cc5c(c([N+](=O)[O-])c4)N[C@H](C4CCOCC4)CO5)c(N4c5cc6cc[nH]c6nc5O[C@H]5COCC[C@@H]54)c3)CC2)C1` [Example 201, 2-[(3R,8S)-2,5-dioxa-9,15,17-triazatetracyclo[8.7.0.0^{3,8}.0^{12,16}]heptadeca-1(10),11,13,16-tetraen-9-yl]-4-{2-[(2R)-2-(2-methylphenyl)-4-[1-(oxan-4-yl)piperidin-4-yl]piperazin-1-yl]-7-azaspiro[3.5]nonan-7-yl}-N-[(3R)-5-nitro-3-(oxan-4-yl)-3,4-dihydro-2H-1,4-benzoxazin-7-ylsulfonyl]benzamide], 232 nM.
Same read-out and setting: the result for `Cc1ccccc1[C@@H]1CN(C2CCC3(CCOCC3)CC2)CCN1C1CC2(CCN(c3ccc(C(=O)NS(=O)(=O)c4cc5c(c([N+](=O)[O-])c4)N[C@H](C4CCOCC4)CO5)c(N4c5cc6cc[nH]c6nc5O[C@H]5COCC[C@@H]54)c3)CC2)C1` (stereo partly drawn) [Example 202, 2-[(3R,8S)-2,5-dioxa-9,15,17-triazatetracyclo[8.7.0.0^{3,8}.0^{12,16}]heptadeca-1(10),11,13,16-tetraen-9-yl]-4-{2-[(2R)-2-(2-methylphenyl)-4-{3-oxaspiro[5.5]undecan-9-yl}piperazin-1-yl]-7-azaspiro[3.5]nonan-7-yl}-N-[(3R)-5-nitro-3-(oxan-4-yl)-3,4-dihydro-2H-1,4-benzoxazin-7-ylsulfonyl]benzamide] reads 15.1 nM; that for `Cc1ccccc1[C@@H]1CN(C2CCC(N3CCOC[C@@H]3C)CC2)CCN1C1CC2(CCN(c3ccc(C(=O)NS(=O)(=O)c4cc5c(c([N+](=O)[O-])c4)N[C@H](C4CCOCC4)CO5)c(N4c5cc6cc[nH]c6nc5O[C@H]5COCC[C@@H]54)c3)CC2)C1` (stereo partly drawn) [Example 203, 4-(2-((R)-4-((1S,4R)-4-((S)-3-methylmorpholino)cyclohexyl)-2-(o-tolyl)piperazin-1-yl)-7-azaspiro[3.5]nonan-7-yl)-N-(((R)-5-nitro-3-(tetrahydro-2H-pyran-4-yl)-3,4-dihydro-2H-benzo[b][1,4]oxazin-7-yl)sulfonyl)-2-((5aS,9aR)-6,7,9,9a-tetrahydro-1H-pyrano[3,4-b]pyrrolo[3′,2′:5,6]pyrido[3,2-e][1,4]oxazin-5(5aH)-yl)benzamide], 68.6 nM.
Still for that read-out and setting: in the case of `Cc1ccccc1[C@@H]1CN(C2CCC(N3CCOC[C@@H]3C)CC2)CCN1C1CC2(CCN(c3ccc(C(=O)NS(=O)(=O)c4cc5c(c([N+](=O)[O-])c4)N[C@H](C4CCOCC4)CO5)c(N4c5cc6cc[nH]c6nc5O[C@H]5COCC[C@@H]54)c3)CC2)C1` (stereo partly drawn) [Example 204, 4-(2-((R)-4-((1R,4S)-4-((S)-3-methylmorpholino)cyclohexyl)-2-(o-tolyl)piperazin-1-yl)-7-azaspiro[3.5]nonan-7-yl)-N-(((R)-5-nitro-3-(tetrahydro-2H-pyran-4-yl)-3,4-dihydro-2H-benzo[b][1,4]oxazin-7-yl)sulfonyl)-2-((5aS,9aR)-6,7,9,9a-tetrahydro-1H-pyrano[3,4-b]pyrrolo[3′,2′:5,6]pyrido[3,2-e][1,4]oxazin-5(5aH)-yl)benzamide] it was 27.5 nM.

These data come from patent US20250114374A1, “BCL-2 INHIBITORS” (Newave Pharmaceutical Inc., priority 2021, published 2025).
